Earlier results as cited in US20090226465A1, “MACROCYCLIC DEPSIPEPTIDE ANTIBODY-DRUG CONJUGATES AND METHODS” (priority 2005, published 2009).
*1 amine or outer side, *2 acyl side, *3 side chain or, on linkers, in order; H or OH if unused. Where a SMILES comes first, the peptide text is derived from it. Bridges are numbered along the chain shown (N, C = ends). [ ]: non-standard residue; d: D form. The star is where a group is joined. X1 = CC[C@H](C)[C@@H](N[*:1])[C@@H](O)CC(=O)O[C@H](C(=O)[C@H](C)C(=O)[*:2])C(C)C; NMeY = CN[C@@H](Cc1ccc(O)cc1)C(=O)O; dNMeL = CN[C@H](CC(C)C)C(=O)O; Pyruvoyl = CC(=O)C(=O)*

Tests used:
[1] = test system: panel of solid tumor cell lines; conditions: read-out: in vitro IC50

SMILES: CC[C@H](C)[C@H]1NC(=O)[C@@H](NC(=O)[C@@H](CC(C)C)N(C)C(=O)[C@@H]2CCCN2C(=O)C(C)=O)[C@@H](C)OC(=O)[C@H](Cc2ccc(OC)cc2)N(C)C(=O)[C@@H]2CCCN2C(=O)[C@H](CC(C)C)NC(=O)[C@@H](C)C(=O)[C@H](C(C)C)OC(=O)C[C@@H]1O [Aplidin] (Pyruvoyl-P[dNMeL]T[X1]LP[NMeY](Me); ester 3-C)
- IC50 [1]: 0.001 to 0.1 µM
- half life in plasma: 4 to 7 h
